Values belong to the compound of their own block, whether it stands above or below them. Numbered stars: 1 amine (or outer) side, 2 acyl side, 3 side chain; on linkers, the order of the positions; unused ones are H or OH. Square brackets hold non-standard residues; d marks the D form. Peptide text beside a SMILES is read from it. * marks the point of attachment. Emetine(N2') = CC[C@H]1CN2CCc3cc(OC)c(OC)cc3[C@@H]2C[C@@H]1C[C@@H]1c2cc(OC)c(OC)cc2CCN1*; PABC = O=C(OCc1ccc(N[*:1])cc1)[*:2]
Legend:
[1] = test system: FAP/DPPIV activity in 10% FBS; assay: Inhibition of hydrolysis of 10 to emetine in 10% FBS by FAP inhibitor; assay type: biochemical, bovine; conditions: Ac-Gly-boroPro 200 μM added to 10% FBS containing media
FAP [2] = molecular target: T1, FAP (Homo sapiens, UniProt Q12884); assay: FAP-mediated hydrolysis of prodrugs ex vivo; assay type: in vitro ADME; conditions: 37°C; for release of emetine on incubation with FAP (in words): FAP in FAP buffer / FAP containing media, 24 hr, LC-MS
T1 sequence (Q12884 27-760 limits assumed): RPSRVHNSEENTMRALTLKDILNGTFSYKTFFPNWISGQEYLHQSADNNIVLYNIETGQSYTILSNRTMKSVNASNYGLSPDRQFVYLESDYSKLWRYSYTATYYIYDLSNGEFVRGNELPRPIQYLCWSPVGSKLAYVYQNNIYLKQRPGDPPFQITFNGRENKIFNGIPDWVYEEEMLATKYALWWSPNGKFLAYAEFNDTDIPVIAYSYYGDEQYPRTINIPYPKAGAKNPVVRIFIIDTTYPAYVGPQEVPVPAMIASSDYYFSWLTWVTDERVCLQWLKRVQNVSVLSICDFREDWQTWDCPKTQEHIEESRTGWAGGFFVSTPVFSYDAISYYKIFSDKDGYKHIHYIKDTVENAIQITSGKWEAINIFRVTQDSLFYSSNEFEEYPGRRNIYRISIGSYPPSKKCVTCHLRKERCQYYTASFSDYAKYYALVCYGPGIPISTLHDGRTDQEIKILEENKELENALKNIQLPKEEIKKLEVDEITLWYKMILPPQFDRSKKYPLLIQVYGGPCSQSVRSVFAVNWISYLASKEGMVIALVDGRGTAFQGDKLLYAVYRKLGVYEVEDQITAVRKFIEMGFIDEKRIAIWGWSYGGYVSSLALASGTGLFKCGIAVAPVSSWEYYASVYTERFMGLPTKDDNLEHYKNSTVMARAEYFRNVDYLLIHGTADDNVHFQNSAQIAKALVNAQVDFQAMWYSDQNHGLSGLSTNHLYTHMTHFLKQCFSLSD

PC3 = assay: MTT cell proliferation; conditions: for cytotoxicity to PC3 (in words): media with 10% FBS, exposure time not given; for IC50 fold higher than that of emetine, PC3: in FAP-containing FBS
LNCaP = assay: MTT cell proliferation; conditions: for cytotoxicity to LNCaP (in words): media with 10% FBS, exposure time not given
[3] = molecular target: DPPIV (human recombinant CD26) (Homo sapiens, UniProt P27487); assay: DPPIV-mediated hydrolysis of prodrugs ex vivo; assay type: in vitro ADME; conditions: very high concentration, incubation up to 48 hr at 37°C, LC-MS
[4] = Hydrolysis of prodrugs in media with 10% FBS; assay type: in vitro ADME, bovine
MCF-7 = assay: MTT cell proliferation
FAP and DPPIV = assay: mixture of purified FAP and DPPIV; conditions: 37°C, up to 24 hr
FAP [5] = assay: FAP buffer; conditions: 37°C, up to 24 hr
DPPIV = assay: FAP buffer; conditions: Human, 37°C, up to 48 hr

Sequence of DPPIV (human recombinant CD26) (P27487 whole entry): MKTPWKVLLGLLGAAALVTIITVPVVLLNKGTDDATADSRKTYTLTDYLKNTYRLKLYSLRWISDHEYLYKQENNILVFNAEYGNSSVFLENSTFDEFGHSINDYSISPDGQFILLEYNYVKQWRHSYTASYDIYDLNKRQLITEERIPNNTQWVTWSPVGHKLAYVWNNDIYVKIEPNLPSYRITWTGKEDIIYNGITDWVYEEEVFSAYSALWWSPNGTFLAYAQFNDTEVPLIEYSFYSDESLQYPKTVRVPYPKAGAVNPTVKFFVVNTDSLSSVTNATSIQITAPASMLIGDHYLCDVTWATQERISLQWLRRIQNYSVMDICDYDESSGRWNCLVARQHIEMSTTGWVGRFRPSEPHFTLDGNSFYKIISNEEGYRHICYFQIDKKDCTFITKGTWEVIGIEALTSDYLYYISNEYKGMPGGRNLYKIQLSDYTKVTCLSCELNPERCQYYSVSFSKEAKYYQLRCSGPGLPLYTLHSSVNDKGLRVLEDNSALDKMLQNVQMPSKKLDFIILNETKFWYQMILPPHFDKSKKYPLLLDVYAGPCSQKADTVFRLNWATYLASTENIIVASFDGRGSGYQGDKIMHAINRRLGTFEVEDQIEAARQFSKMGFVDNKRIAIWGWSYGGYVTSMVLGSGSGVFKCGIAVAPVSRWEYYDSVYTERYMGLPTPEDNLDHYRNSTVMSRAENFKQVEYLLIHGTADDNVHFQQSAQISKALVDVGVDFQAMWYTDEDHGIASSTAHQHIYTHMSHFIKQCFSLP

Compound: CC(=O)NCC(=O)N1CCC[C@@H]1B(O)O [AcGBP, Ac-Gly-boroPro]
- inhibition of release of emetine from 10 in 10% FBS, 2 hr ([1]; 2 hr): completely inhibited
- decrease of release of emetine from 10 in 10% FBS, 24 hr ([1]; 24 hr): approximately 45%

Compound: CC[C@H]1CN2CCc3cc(OC)c(OC)cc3[C@@H]2C[C@@H]1C[C@@H]1c2cc(OC)c(OC)cc2CCN1C(=O)[C@@H]1CCCN1C(=O)CNC(=O)[C@H](C)NC(=O)[C@@H]1CCCN1C(=O)CNC(=O)[C@H](CO)NC(=O)[C@H](C)NC(C)=O [Compound 1] (Ac-ASGPAGP-{Emetine(N2')})
- release of emetine on incubation with FAP (in words) (FAP [2]): did not release detectable amounts of emetine
- cytotoxicity to PC3 (in words) (PC3): not cytotoxic
- cytotoxicity to LNCaP (in words) (LNCaP): not cytotoxic

Compound: CC[C@H]1CN2CCc3cc(OC)c(OC)cc3[C@@H]2C[C@@H]1C[C@@H]1c2cc(OC)c(OC)cc2CCN1C(=O)OCc1ccc(NC(=O)[C@@H]2CCCN2C(=O)CNC(=O)[C@H](C)NC(=O)[C@@H]2CCCN2C(=O)CNC(=O)[C@H](CO)NC(=O)[C@H](C)NC(C)=O)cc1 [Compound 2] (Ac-ASGPAGP[PABC]-{Emetine(N2')})
- release of emetine on incubation with FAP (in words) (FAP [2]): not cleaved by FAP containing media to release emetine
- cytotoxicity to PC3 (in words) (PC3): not cytotoxic
- cytotoxicity to LNCaP (in words) (LNCaP): not cytotoxic

Compound: CC[C@H]1CN2CCc3cc(OC)c(OC)cc3[C@@H]2C[C@@H]1C[C@@H]1c2cc(OC)c(OC)cc2CCN1C(=O)[C@H](C)NC(=O)[C@@H]1CCCN1C(=O)CNC(=O)[C@H](C)NC(=O)[C@@H]1CCCN1C(=O)CNC(=O)[C@H](CO)NC(=O)[C@H](C)NC(C)=O [Compound 3] (Ac-ASGPAGPA-{Emetine(N2')})
- % cleavage to Ala-Gly-Pro-Ala-Emetine (FAP [2]; 24 hr incubation with FAP): 100%
- release of emetine on incubation with FAP (in words) (FAP [2]): no further conversion to free emetine
- IC50 fold higher than that of emetine, PC3 (PC3): more than 150 fold

Compound: CC[C@H]1CN2CCc3cc(OC)c(OC)cc3[C@@H]2C[C@@H]1C[C@@H]1c2cc(OC)c(OC)cc2CCN1C(=O)OCc1ccc(NC(=O)[C@H](C)NC(=O)[C@@H]2CCCN2C(=O)CNC(=O)[C@H](C)NC(=O)[C@@H]2CCCN2C(=O)CNC(=O)[C@H](CO)NC(=O)[C@H](C)NC(C)=O)cc1 [Compound 4] (Ac-ASGPAGPA[PABC]-{Emetine(N2')})
- % Ala-Gly-Pro-Ala-PABC-Emetine (minor cleavage product) (FAP [2]; 24 hr incubation with FAP): 15%
- % Ala-PABC-Emetine (major cleavage product) (FAP [2]; 24 hr incubation with FAP): 85%
- release of emetine on incubation with FAP (in words) (FAP [2]): no further conversion to free emetine
- IC50 fold higher than that of emetine, PC3 (PC3): more than 150 fold

Compound: CC[C@H]1CN2CCc3cc(OC)c(OC)cc3[C@@H]2C[C@@H]1C[C@@H]1c2cc(OC)c(OC)cc2CCN1C(=O)[C@@H]1CCCN1C(=O)[C@H](C)N [Compound 9]
- conversion to emetine by purified DPPIV (in words) [3]: not converted to emetine
- % emetine released, 10% FBS ([4]; RPMI media with 10% FBS, 500 μM compound, 1% DMSO, 37°C, 24 hr, HPLC and MS): 0%
- conversion to emetine in 10% FBS (in words) ([4]; very high concentration, incubation up to 48 hr at 37°C, LC-MS): not converted to emetine
- cytotoxicity to PC3 (in words) (PC3): inactive compared to emetine
- IC50 (PC3; read-out: IC50 (nM) PC3, Table II, 3-day exposure, media containing 10% FBS, MTT): > 10000 nM
- cytotoxicity to LNCaP (in words) (LNCaP): inactive compared to emetine
- IC50 (LNCaP; read-out: IC50 (nM) LNCaP, Table II, 3-day exposure, media containing 10% FBS, MTT): 9520 nM
- cytotoxicity to MCF-7 (in words) (MCF-7; media with 10% FBS, exposure time not given): inactive compared to emetine
- IC50 (MCF-7; read-out: IC50 (nM) MCF-7, Table II, 3-day exposure, media containing 10% FBS, MTT): > 10000 nM

- fragment found (FAP and DPPIV): emetine, 2 hr
- fragment found (FAP [5]): emetine
Compound: Ac-Ala-Ser-Gly-Pro-Ala-Gly-Pro-Ala-Pro-PABC-Emetine

- fragment found (FAP [5]): emetine
- fragment found (DPPIV): emetine, 2 hr
Compound: Ala-Pro-PABC-Emetine
